Assay results published in patent US6358885B1, “Substituted phenylheterocyclic herbicides” (Mississippi State University, priority 1992, dated 2002).

Experiments:
barley = test: Test B preemergence/postemergence greenhouse plant response rating 0 to 10; format: in vivo, Hordeum vulgare; settings: 0 to 10 scale
Method in brief: (§1)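 Test chemicals, dissolved in a non-phytotoxic solvent, were applied to soil at planting and, at the same time, over foliage of seedlings at the one to four leaf stage.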

bedstraw = test: as above; format: in vivo, Galium aparine; settings: 0 to 10 scale
Method in brief: as §1

blackgrass = test: as above; format: in vivo, Alopecurus myosuroides; settings: 0 to 10 scale
Method in brief: as §1

cocklebur = test: as above; format: in vivo, Xanthium pensylvanicum; settings: 0 to 10 scale
Method in brief: as §1

crabgrass = test: as above; format: in vivo, Digitaria spp.; settings: 0 to 10 scale
Method in brief: as §1

lambsquarters = test: as above; format: in vivo, Chenopodium album; settings: 0 to 10 scale
Method in brief: as §1

rape = test: as above; format: in vivo, Brassica napus; settings: 0 to 10 scale
Method in brief: as §1

rice [1] = test: as above; format: in vivo, Oryza sativa; settings: 0 to 10 scale
Method in brief: as §1

soybean = test: as above; format: in vivo, Glycine max; settings: 0 to 10 scale
Method in brief: as §1

sugar beet = test: as above; format: in vivo, Beta vulgaris; settings: 0 to 10 scale
Method in brief: as §1

purple nutsedge = test: as above; format: in vivo, Cyperus rotundus; settings: 0 to 10 scale
Method in brief: as §1

corn = test: Test C preemergence/postemergence greenhouse plant response rating 0 to 100; format: in vivo, Zea mays; settings: for Plant response rating, Corn: 125 g/ha, 0 to 100 scale
Method in brief: (§2)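 Compounds in non-phytotoxic solvent went onto sandy loam before emergence (seeded one day earlier) or onto plants at the one-to-four leaf stage. Duck salad was treated via flood water (~2.5 cm, maintained) over silt loam.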

morningglory = test: as above; format: in vivo, Ipomoea hederacea; settings: for Plant response rating, Morningglory: 125 g/ha, 0 to 100 scale
Method in brief: as §2

pigweed = test: as above; format: in vivo, Amaranthusretroflexus; settings: for Plant response rating Pigweed: 125 g/ha, 0 to 100 scale
Method in brief: as §2

sorghum = test: as above; format: in vivo, Sorghum bicolor; settings: for Plant response rating, Sorghum: 125 g/ha, 0 to 100 scale
Method in brief: as §2

rice [2] = test: Test C flood test plant response rating 0 to 100; format: in vivo, Oryza sativa
Method in brief: (§3)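 Compounds in non-phytotoxic solvent applied preemergence to sandy loam one day after planting, postemergence at the 1–4 leaf stage, or to ~2.5 cm floodwater over silt loam.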

umbrella sedge = test: Test C flood test plant response rating 0 to 100; format: in vivo, Cyperus difformis
Method in brief: as §3

barnyardgrass = test: Test C flood test plant response rating 0 to 100; format: in vivo, Echinochloa crus-galli
Method in brief: as §3

[3] = POSTEMERGENCE section, flood test, Rate 2 g/ha
[4] = Rate 8 g/ha, under POSTEMERGENCE head (flood test species)
[5] = Rate 31 g/ha, under POSTEMERGENCE head (flood test species)
[6] = flood test species listed under POSTEMERGENCE, 125 g/ha, 0 to 100 scale

Fc1cc(Cl)ccc1-c1nn2c(c1Br)CCCC2 [Compound 52]
Plant response rating, Barley (barley; POSTEMERGENCE, Rate 50 g/ha): 5 | Plant response rating, Barley (barley; POSTEMERGENCE, Rate 200 g/ha): 7 | Plant response rating, Barley (barley; PREEMERGENCE, Rate 50 g/ha): 2 | Plant response rating, Barley (barley; Rate 200 g/ha, PREEMERGENCE): 3 | Plant response rating, Bedstraw (bedstraw; POSTEMERGENCE, Rate 50 g/ha): 10 | Plant response rating, Bedstraw (bedstraw; POSTEMERGENCE, Rate 200 g/ha): 10 | Plant response rating, Bedstraw (bedstraw; PREEMERGENCE, Rate 50 g/ha): 5 | Plant response rating, Bedstraw (bedstraw; Rate 200 g/ha, PREEMERGENCE): 7 | Plant response rating, Blackgrass (blackgrass; POSTEMERGENCE, Rate 50 g/ha): 4 | Plant response rating, Blackgrass (blackgrass; POSTEMERGENCE, Rate 200 g/ha): 5 | Plant response rating, Blackgrass (blackgrass; PREEMERGENCE, Rate 50 g/ha): 4 | Plant response rating, Blackgrass (blackgrass; Rate 200 g/ha, PREEMERGENCE): 6 | Plant response rating, Cocklebur (cocklebur; POSTEMERGENCE, Rate 50 g/ha): 6 | Plant response rating, Cocklebur (cocklebur; POSTEMERGENCE, Rate 200 g/ha): 8 | Plant response rating, Cocklebur (cocklebur; PREEMERGENCE, Rate 50 g/ha): 0 | Plant response rating, Cocklebur (cocklebur; Rate 200 g/ha, PREEMERGENCE): 0 | Plant response rating, Crabgrass (crabgrass; POSTEMERGENCE, Rate 50 g/ha): 6 | Plant response rating, Crabgrass (crabgrass; POSTEMERGENCE, Rate 200 g/ha): 7 | Plant response rating, Crabgrass (crabgrass; PREEMERGENCE, Rate 50 g/ha): 2 | Plant response rating, Crabgrass (crabgrass; Rate 200 g/ha, PREEMERGENCE): 10 | Plant response rating, Lambsquarter (lambsquarters; POSTEMERGENCE, Rate 50 g/ha): 9 | Plant response rating, Lambsquarter (lambsquarters; PREEMERGENCE, Rate 50 g/ha): 10 | Plant response rating, Lambsquarter (lambsquarters; Rate 200 g/ha, POSTEMERGENCE): 10 | Plant response rating, Lambsquarter (lambsquarters; Rate 200 g/ha, PREEMERGENCE): 10 | Plant response rating, Rape (rape; POSTEMERGENCE, Rate 50 g/ha): 8 | Plant response rating, Rape (rape; PREEMERGENCE, Rate 50 g/ha): 1 | Plant response rating, Rape (rape; Rate 200 g/ha, POSTEMERGENCE): 10 | Plant response rating, Rape (rape; Rate 200 g/ha, PREEMERGENCE): 9 | Plant response rating, Rice (rice [1]; POSTEMERGENCE, Rate 50 g/ha): 4 | Plant response rating, Rice (rice [1]; PREEMERGENCE, Rate 50 g/ha): 0 | Plant response rating, Rice (rice [1]; Rate 200 g/ha, POSTEMERGENCE): 6 | Plant response rating, Rice (rice [1]; Rate 200 g/ha, PREEMERGENCE): 1 | Plant response rating, Soybean (soybean; POSTEMERGENCE, Rate 50 g/ha): 10 | Plant response rating, Soybean (soybean; PREEMERGENCE, Rate 50 g/ha): 0 | Plant response rating, Soybean (soybean; Rate 200 g/ha, POSTEMERGENCE): 8 | Plant response rating, Soybean (soybean; Rate 200 g/ha, PREEMERGENCE): 0 | Plant response rating, Sugar beet (sugar beet; POSTEMERGENCE, Rate 50 g/ha): 10 | Plant response rating, Sugar beet (sugar beet; PREEMERGENCE, Rate 50 g/ha): 9 | Plant response rating, Sugar beet (sugar beet; Rate 200 g/ha, PREEMERGENCE): 10 | Plant response rating, Nutsedge (purple nutsedge; POSTEMERGENCE, Rate 50 g/ha): 3 | Plant response rating, Nutsedge (purple nutsedge; PREEMERGENCE, Rate 50 g/ha): 0 | Plant response rating, Nutsedge (purple nutsedge; Rate 200 g/ha, POSTEMERGENCE): 5 | Plant response rating, Nutsedge (purple nutsedge; Rate 200 g/ha, PREEMERGENCE): 0 | Plant response rating, Corn (corn; POSTEMERGENCE): 50 | Plant response rating (0 to 100), Corn (corn; POSTEMERGENCE, Rate 2 g/ha): 20 | Plant response rating, Corn (corn; PREEMERGENCE): 0 | Plant response rating (0 to 100), Corn (corn; PREEMERGENCE, Rate 2 g/ha): 0 | Plant response rating (0 to 100), Corn (corn; Rate 8 g/ha, POSTEMERGENCE): 30 | Plant response rating (0 to 100), Corn (corn; Rate 8 g/ha, PREEMERGENCE): 0 | Plant response rating (0 to 100), Corn (corn; Rate 31 g/ha, POSTEMERGENCE): 40 | Plant response rating (0 to 100), Corn (corn; Rate 31 g/ha, PREEMERGENCE): 0 | Plant response rating, Morningglory (morningglory; POSTEMERGENCE): 100 | Plant response rating (0 to 100), Morningglory (morningglory; POSTEMERGENCE, Rate 2 g/ha): 20 | Plant response rating, Morningglory (morningglory; PREEMERGENCE): 0 | Plant response rating (0 to 100), Morningglory (morningglory; PREEMERGENCE, Rate 2 g/ha): 0 | Plant response rating (0 to 100), Morningglory (morningglory; Rate 8 g/ha, POSTEMERGENCE): 30 | Plant response rating (0 to 100), Morningglory (morningglory; Rate 8 g/ha, PREEMERGENCE): 0 | Plant response rating (0 to 100), Morningglory (morningglory; Rate 31 g/ha, POSTEMERGENCE): 50 | Plant response rating (0 to 100), Morningglory (morningglory; Rate 31 g/ha, PREEMERGENCE): 0 | Plant response rating Pigweed (pigweed; POSTEMERGENCE): 100 | Plant response rating (0 to 100), Pigweed (pigweed; POSTEMERGENCE, Rate 2 g/ha): 20 | Plant response rating Pigweed (pigweed; PREEMERGENCE): 100 | Plant response rating (0 to 100), Pigweed (pigweed; PREEMERGENCE, Rate 2 g/ha): 0 | Plant response rating (0 to 100), Pigweed (pigweed; Rate 8 g/ha, POSTEMERGENCE): 50 | Plant response rating (0 to 100), Pigweed (pigweed; Rate 8 g/ha, PREEMERGENCE): 50 | Plant response rating (0 to 100), Pigweed (pigweed; Rate 31 g/ha, POSTEMERGENCE): 50 | Plant response rating (0 to 100), Pigweed (pigweed; Rate 31 g/ha, PREEMERGENCE): 100 | Plant response rating, Sorghum (sorghum; POSTEMERGENCE): 60 | Plant response rating (0 to 100), Sorghum (sorghum; POSTEMERGENCE, Rate 2 g/ha): 30 | Plant response rating, Sorghum (sorghum; PREEMERGENCE): 10 | Plant response rating (0 to 100), Sorghum (sorghum; PREEMERGENCE, Rate 2 g/ha): 0 | Plant response rating (0 to 100), Sorghum (sorghum; Rate 8 g/ha, POSTEMERGENCE): 40 | Plant response rating (0 to 100), Sorghum (sorghum; Rate 8 g/ha, PREEMERGENCE): 0 | Plant response rating (0 to 100), Sorghum (sorghum; Rate 31 g/ha, POSTEMERGENCE): 50 | Plant response rating (0 to 100), Sorghum (sorghum; Rate 31 g/ha, PREEMERGENCE): 0 | Plant response rating (0 to 100), Rice Japonica (rice [2]; [3]): 0 | Plant response rating (0 to 100), Rice Japonica (rice [2]; [4]): 20 | Plant response rating (0 to 100), Rice Japonica (rice [2]; [5]): 45 | Plant response rating Rice Japonica (rice [2]; [6]): 60 | Plant response rating (0 to 100), Umbrella sedge (umbrella sedge; [3]): 10 | Plant response rating (0 to 100), Umbrella sedge (umbrella sedge; [4]): 20 | Plant response rating (0 to 100), Umbrella sedge (umbrella sedge; [5]): 25 | Plant response rating Umbrella sedge (umbrella sedge; [6]): 80 | Plant response rating (0 to 100), Barnyardgrass 2 (barnyardgrass; [3]): 25 | Plant response rating (0 to 100), Barnyardgrass 2 (barnyardgrass; [4]): 95 | Plant response rating (0 to 100), Barnyardgrass 2 (barnyardgrass; [5]): 100 | Plant response rating Barnyardgrass 2 (barnyardgrass; [6]): 100
